From patent publication EP0101786A1, “Use of a benzoisothiazoline derivative for the manufacture of a medicament against thrombosis and platelet aggregation” (GREEN CROSS CORPORATION, priority 1982, dated 1984)

Assays:
[1] = system: platelet aggregation initiated by promoter ADP (platelet-rich plasma); assay: Inhibition of ADP-induced platelet aggregation (aggregometer, nephelometry); format: cell-based; details: 2 min; for inhibition at 10 µg/mL: final conc. 10 γ/ml (10.0 γ/ml); for inhibition at 3 µg/mL: final conc. 3.0 γ/ml
Method: The inhibitory activity of BIT (1) compounds against platelet aggregation initiated by promoter ADP was determined for various amounts of the BIT (1) compounds. […] Silicon-coated cuvettes on the Aggregometer were filled with 0.8 ml of diluted platelet-rich plasma (containing 300,000 to 400,000 platelets per cmm) and 0.1 ml of solutions of the BIT (1) compounds listed in Table 1 having different concentration (0.3 y/ml, 1.0 γ/ml and 3.0 y/ml as dissolved in 100% alcohol), as well as adenosine (20 y/ml and 100 y/ml) and aspirin (500 y/ml) were added. Following 2-minute incubation, ADP was added to give a final concentration of 10^-5 M. The final volume of each sample was 1 ml. The process of platelet aggregation was monitored with the recorder pen which traced aggregation curves.
The percent inhibition of aggregation was calculated by the following formula: [formula] wherein M represents light transmittance for maximum aggregation in 100 % ethanol (Control);
D represents light transmittance for maximum aggregation in the specific sample.

[2] = Acute toxicity test, oral, Litchfield-Wilcoxon method; details: mouse, in vivo, male ddy mice, suspension in distilled water with 0.5 % carboxymethyl cellulose
Method: A group of 10 male ddy mice each weighing […] were subject to an acute toxicity test with BIT (1) (R=n-C3H7, X-Cl) which was administered to the mice orally as suspensions in distilled water for injection that contained 0.5 % of carboxymethyl cellulose.

[3] = system: platelets (platelet-rich plasma, ADP-aggregated); assay: Acceleration of platelet disaggregation after ADP-induced maximum aggregation; format: cell-based; details: 5 minutes after addition, control about 12 %
Method: ADP was added to platelet-rich plasma as used in (1) above, and when maximum aggregation was reached, BIT (1) compound (R=n-C3H7, X-Cl) was added to check its ability to accelerate the disaggregation of platelets. In this experiment, the procedure of experiment (1) was repeated except that the BIT (1) was added after the aggregation of platelets occurred. To give final concentrations of 1.0 γ/ml, 3.0 y/ml and 6.0 y/ml as dissolved in 100 % ethanol, 0.1 ml of solutions containing 10 γ/ml, 30 γ/ml and 60 y/ml of BIT (1) were added after maximum platelet aggregation took place. As a control, 100 % ethanol was added instead of the BIT (1). The degree of disaggregation was determined by measuring the absorbance of the test samples 5 minuts after the addition of the BIT (1) as against the absorbance for maximum aggregation in that sample.

[4] = ADP 10^-5 M, 2-minute incubation

With `Nc1ncnc2c1ncn2[C@@H]1O[C@H](CO)[C@@H](O)[C@H]1O` [Adenosine, reference compound] the inhibition at 2 µg/mL ([1]; final conc. 2 γ/ml, ADP 10^-5 M, 2-minute incubation) was 47% and the inhibition at 10 µg/mL [1, 4] was 62%.

Compound `CCCn1sc2cc(Cl)ccc2c1=O` [BIT (R=n-C3H7) (X=Cl), 6-chloro-2-n-propyl-1,2-benzoisothiazolin-3-one] has an LD50 [2] of 6500 mg/kg, a disaggregation level ([3]; final concentration 1.0 γ/ml) of 25% and a disaggregation level ([3]; final concentration 3.0 γ/ml) of 47%. For the same compound, the disaggregation level ([3]; final concentration 6.0 γ/ml) was 64%, the inhibition at 0.3 µg/mL ([1]; final conc. 0.3 γ/ml, ADP 10^-5 M, 2-minute incubation) was 18% and the inhibition at 1 µg/mL ([1]; final conc. 1.0 γ/ml, ADP 10^-5 M, 2-minute incubation) was 43%. It also gave an inhibition at 3 µg/mL [1, 4] of 100%.

With `CCCCCCCCCCn1sc2cc(Cl)ccc2c1=O` [BIT (R=n-C10H21) (X=Cl), 6-chloro-2-n-decyl-1,2-benzoiso-thiazolin-3-one] the inhibition at 3 µg/mL [1, 4] was 100%.

Work on `CCCCCCn1sc2cc(Cl)ccc2c1=O` [BIT (R=n-C6H13) (X=Cl), 6-chloro-2-n-hexyl-1,2-benzoisothiazolin-3-one] yielded an inhibition at 3 µg/mL [1, 4] of 100%.

In the case of `O=c1[nH]sc2cc(Cl)ccc12` [BIT (R=H) (X=Cl)], the inhibition at 10 µg/mL [1, 4] is reported as 100%.

In the case of `CC(=O)Oc1ccccc1C(=O)O` [Aspirin, reference compound], the inhibition at 50 µg/mL ([1]; read-out: Inhibition of platelet aggregation) is reported as 0%.
